IC50 data for seven compounds are collected here from patent US7223772B1, “Pyrazolopyridine derivatives as selective cox-2 inhibitors” (SmithKline Beecham Corporation, priority 1998, dated 2007).

For test [1], the target named is T1, human COX-2 (Homo sapiens, UniProt P35354).
T1 construct: expressed in transfected cells; host or cells: COS cells (stably transfected)
T1 sequence (P35354 18-604): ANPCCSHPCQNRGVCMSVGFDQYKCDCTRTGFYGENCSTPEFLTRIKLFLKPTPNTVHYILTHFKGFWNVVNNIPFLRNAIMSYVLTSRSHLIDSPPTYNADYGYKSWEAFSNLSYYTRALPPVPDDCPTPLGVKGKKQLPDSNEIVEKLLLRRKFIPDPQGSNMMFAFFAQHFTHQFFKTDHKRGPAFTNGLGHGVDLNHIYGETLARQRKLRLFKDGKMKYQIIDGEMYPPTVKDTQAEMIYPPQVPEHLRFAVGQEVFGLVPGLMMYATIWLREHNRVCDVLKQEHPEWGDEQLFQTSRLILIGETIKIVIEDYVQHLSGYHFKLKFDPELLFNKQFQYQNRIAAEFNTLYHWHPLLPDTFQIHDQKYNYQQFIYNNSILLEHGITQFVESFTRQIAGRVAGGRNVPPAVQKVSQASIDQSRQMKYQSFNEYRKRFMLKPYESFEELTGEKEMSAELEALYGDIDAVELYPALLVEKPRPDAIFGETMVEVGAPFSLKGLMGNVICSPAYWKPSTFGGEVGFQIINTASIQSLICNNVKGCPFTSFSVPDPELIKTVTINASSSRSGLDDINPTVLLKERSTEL
As to the kind of experiment: Inhibition of PGE2 release in COS cells stably transfected with human COX-2. Type of test: cell-based. Particulars: COS cells transfected with human COX-2, 30 μM arachidonic acid. How it is done: (§1) Inhibitory activity against human COX-1 and COX-2 was assessed in COS cells which had been stably transfected with cDNA for human COX-1 and human COX-2. 24 Hours prior to experiment, COS cells were transferred from the 175 cm^2 flasks in which they were grown, onto 24-well cell culture plates using the following procedure. The incubation medium (Dulbecco's modified eagles medium (DMEM) supplemented with heat-inactivated foetal calf serum (10%v/v), penicillin (100 lU/ml), streptomycin (100 μg/ml) and geneticin (600 μg/ml)) was removed from a flask of confluent cells (1 flask at confluency contains approximately 1×10^7 cells). 10 ml of phosphate buffered saline (PBS) was added to the flask to wash the cells. Having discarded the PBS, cells were then rinsed in 10 ml trypsin for 20 seconds, after which the trypsin was removed and the flask placed in an incubator (37°) for 1-2 minutes until cells became detached from the flask. The flask was then removed from the incubator and cells resuspended in 10 ml of fresh incubation medium. The contents of the flask was transferred to a 250 ml sterile container and the volume of incubation medium subsequently made up to 100 ml. 1 ml cell suspension was pipetted into each well of 4×24-well cell culture plates. The plates were then placed in an incubator (37° C., 95% air/5% CO2) overnight. If more than 1 flask of cells were required, the cells from flasks were combined before being dispensed into the 24-well plates.
(§2) Following the overnight incubation, the incubation medium was completely removed from the 24-well cell culture plates and replaced with 250 μl fresh DMEM (37° C.). The test compounds were made up to 250× the required test concentration in DMSO and were added to the wells in a volume of 1 μl. Plates were then mixed gently by swirling and then placed in an incubator for 1 hour (37° C., 95% air/5% CO2). Following the incubation period, 10 μl of arachidonic acid (750 μM) was added to each well to give a final arachidonic acid concentration of 30 μM. Plates were then incubated for a further 15 minutes, after which the incubation medium was removed from each well of the plates and stored −20° C., prior to determination of prostaglandin E2 (PGE2) levels using enzyme immunoassay. The inhibitory potency of the test compound was expressed as an IC50 value, which is defined as the concentration of the compound required to inhibit the PGE2 release from the cells by 50%. The selectivity ratio of inhibition of COX-1 versus COX-2 was calculated by comparing respective IC50 values. The following IC50 values for inhibition of COX-2 and COX-1 were obtained for compounds of the invention: […]

Test [2] has as its target T2, human COX-1 (Homo sapiens, UniProt P23219).
T2 construct: expressed in transfected cells; host or cells: COS cells (stably transfected)
The test can be described thus: Inhibition of PGE2 release in COS cells stably transfected with human COX-1. Type of test: cell-based. The settings on record: COS cells transfected with human COX-1, 30 μM arachidonic acid. How it is done:
as §1, §2

T2 sequence (P23219 24-599): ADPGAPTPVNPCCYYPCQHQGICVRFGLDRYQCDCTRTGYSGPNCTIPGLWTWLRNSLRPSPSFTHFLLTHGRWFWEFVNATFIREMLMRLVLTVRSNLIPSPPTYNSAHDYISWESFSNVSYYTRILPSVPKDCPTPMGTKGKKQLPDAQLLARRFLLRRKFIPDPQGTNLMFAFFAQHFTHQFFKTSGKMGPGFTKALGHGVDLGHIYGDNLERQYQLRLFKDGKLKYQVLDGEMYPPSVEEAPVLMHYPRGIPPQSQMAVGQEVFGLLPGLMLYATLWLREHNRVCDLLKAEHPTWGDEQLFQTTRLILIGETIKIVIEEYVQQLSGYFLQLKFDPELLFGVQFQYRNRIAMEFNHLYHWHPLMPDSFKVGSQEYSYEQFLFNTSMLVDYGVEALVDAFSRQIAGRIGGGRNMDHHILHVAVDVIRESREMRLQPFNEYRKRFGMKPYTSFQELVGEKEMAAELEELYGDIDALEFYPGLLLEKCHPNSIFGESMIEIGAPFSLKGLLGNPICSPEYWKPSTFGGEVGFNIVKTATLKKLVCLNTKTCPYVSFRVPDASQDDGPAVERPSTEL

For the compound `CS(=O)(=O)c1ccc(-c2c(-c3cccc(F)c3)nn3cc(C(F)(F)F)ccc23)cc1` [Example 2, 2-(3-Fluoro-phenyl)-3-(4-methanesulfonyl-phenyl)-6-trifluoromethyl-pyrazolo[1,5-a]pyridine], the IC50 is 548 nM in test [1] and greater than 100000 nM in test [2].

Regarding `CCOc1ccc(-c2nn3cc(C(F)(F)F)ccc3c2-c2ccc(S(N)(=O)=O)cc2)cc1` [Example 3, 4-[2-(4-Ethoxy-phenyl)-6-trifluoromethyl-pyrazolo[1,5-a]pyridin-3-yl]benzenesulfonamide], the figures for the IC50 in test [1] and in test [2] were 34 nM and 32200 nM, respectively.

`CS(=O)(=O)c1ccc(-c2c(-c3ccc(F)cc3)nn3cc(C(F)(F)F)ccc23)cc1` [Example 5, 2-(4-Fluoro-phenyl)-3-(4-methanesulfonyl-phenyl)-6-trifluoromethyl-pyrazolo[1,5-a]pyridine]: the IC50 is 26 nM in test [1] and greater than 100000 nM in test [2].

Regarding `NS(=O)(=O)c1ccc(-c2c(-c3cccc(F)c3)nn3cc(C(F)(F)F)ccc23)cc1` [Example 1(vii), 4-[2-(3-Fluoro-phenyl)-6-trifluoromethyl-pyrazolo[1,5-a]pyridin-3-yl]benzenesulfonamide], the IC50 was 34 nM in test [1] and greater than 100000 nM in test [2].

For `NS(=O)(=O)c1ccc(-c2c(-c3ccc(F)cc3)nn3cc(C(F)(F)F)ccc23)cc1` [Example 4, 4-[2-(4-Fluoro-phenyl)-6-trifluoromethyl-pyrazolo[1,5-a]pyridin-3-yl]benzenesulfonamide], the IC50 in test [1] was 34 nM; in test [2], greater than 100000 nM.

Turning to `CS(=O)(=O)c1ccc(-c2c(-c3ccccc3)nn3cc(C(F)(F)F)ccc23)cc1` [Example 7, 3-(4-Methanesulfonyl-phenyl)-2-phenyl-6-trifluoromethyl-pyrazolo[1,5-a]pyridine], the IC50 in test [1] is 30 nM; in test [2] it was greater than 100000 nM.

For the compound `NS(=O)(=O)c1ccc(-c2c(-c3ccccc3)nn3cc(C(F)(F)F)ccc23)cc1` [Example 6, 4-(2-Phenyl-6-trifluoromethyl-pyrazolo[1,5-a]pyridin-3-yl)-benzenesulfonamide], the half-inhibitory concentration (IC50) in test [1] was determined as 31 nM; in test [2] it was 26300 nM.

Usually IC50 stands for the point on the concentration scale where inhibition reaches its midpoint. Low readings indicate greater potency, high ones weaker potency.
